Experiment: xn = mol fraction of the nth substance listed
Conditions: 101 kPa, Liquid, Direct current cell with electrodes

C[N+](C)(C)CCO.[Cl-] [choline chloride] + OCC(O)CO
electrical conductivity [S/m]
Conditions	x1 = 0.25	x1 = 0.34	x1 = 0.5
298.15 K	0.1463	0.1749	0.1929
303.15 K	0.1553	0.1951	0.219
308.15 K	0.203	0.2549	0.3161
313.15 K	0.257	0.3004	0.368
318.15 K	0.3112	0.399	0.4603
323.15 K	0.3816	0.512	0.5864
328.15 K	0.4811	0.6046	0.6668
333.15 K	0.5757	0.7187	0.7805
338.15 K	0.6717	0.816	0.898
343.15 K	0.7805	0.8955	0.9863
348.15 K	0.9286	1.063	1.155
353.15 K	1.08	1.219	1.295

C[N+](C)(C)CCO.[Cl-] [choline chloride] + OCCO
electrical conductivity [S/m]
Conditions	x1 = 0.28	x1 = 0.34	x1 = 0.36
298.15 K	0.832	0.733	0.68
303.15 K	1.067	1.019	0.9138
308.15 K	1.207	1.141	1.086
313.15 K	1.413	1.355	1.294
318.15 K	1.656	1.589	1.479
323.15 K	1.798	1.718	1.633
328.15 K	2.126	2.023	1.839
333.15 K	2.425	2.299	2.01
338.15 K	2.515	2.42	2.177
343.15 K	2.627	2.56	2.347
348.15 K	2.78	2.707	2.475
353.15 K	2.869	2.8072	2.604

C[P+](c1ccccc1)(c1ccccc1)c1ccccc1.[Br-] [methyltriphenylphosphonium bromide] + OCC(O)CO
electrical conductivity [S/m]
Conditions	x1 = 0.2	x1 = 0.25	x1 = 0.34
298.15 K	0.0116	0.0103	0.0062
303.15 K	0.0198	0.0172	0.0124
308.15 K	0.037	0.0319	0.0186
313.15 K	0.041	0.0394	0.0277
318.15 K	0.0607	0.0549	0.0405
323.15 K	0.0816	0.0719	0.0496
328.15 K	0.0965	0.0927	0.0701
333.15 K	0.1233	0.1124	0.0858
338.15 K	0.1608	0.1487	0.116
343.15 K	0.1971	0.1778	0.1493
348.15 K	0.2874	0.2196	0.1811
353.15 K	0.3594	0.2599	0.2154

CCN(CC)CCO.Cl [2-(diethylamino)ethanol hydrochloride] + OCC(O)CO
electrical conductivity [S/m]
Conditions	x1 = 0.2	x1 = 0.25	x1 = 0.34
298.15 K	0.0487	0.0602	0.075
303.15 K	0.078	0.0958	0.118
308.15 K	0.11	0.104	0.164
313.15 K	0.139	0.156	0.207
318.15 K	0.188	0.211	0.2716
323.15 K	0.2357	0.264	0.3381
328.15 K	0.2716	0.3426	0.3903
333.15 K	0.3246	0.4086	0.4878
338.15 K	0.3962	0.4916	0.5754
343.15 K	0.4646	0.5748	0.6521
348.15 K	0.5335	0.6474	0.7754
353.15 K	0.6095	0.71	0.9109

C[P+](c1ccccc1)(c1ccccc1)c1ccccc1.[Br-] [methyltriphenylphosphonium bromide] + OCCO
electrical conductivity [S/m]
Conditions	x1 = 0.16	x1 = 0.2	x1 = 0.25
298.15 K	0.194	0.156	0.109
303.15 K	0.257	0.219	0.16
308.15 K	0.3103	0.2649	0.1914
313.15 K	0.3845	0.3246	0.2502
318.15 K	0.4437	0.3858	0.2964
323.15 K	0.5072	0.4405	0.3265
328.15 K	0.6279	0.5395	0.4307
333.15 K	0.711	0.6221	0.5129
338.15 K	0.8169	0.7423	0.5797
343.15 K	0.9496	0.8192	0.6923
348.15 K	1.031	0.9074	0.7372
353.15 K	1.12	1.003	0.8114

CCN(CC)CCO.Cl [2-(diethylamino)ethanol hydrochloride] + OCCO
electrical conductivity [S/m]
Conditions	x1 = 0.2	x1 = 0.25	x1 = 0.34
298.15 K	0.5661	0.543	0.512
303.15 K	0.6994	0.6878	0.6627
308.15 K	0.8245	0.8305	0.794
313.15 K	0.9699	0.9486	0.9283
318.15 K	1.158	1.134	1.095
323.15 K	1.341	1.315	1.254
328.15 K	1.509	1.477	1.433
333.15 K	1.714	1.666	1.616
338.15 K	1.875	1.839	1.778
343.15 K	2.029	1.99	1.942
348.15 K	2.226	2.192	2.135
353.15 K	2.405	2.367	2.31
